Experimental data taken from ChEMBL document CHEMBL3244234, “Alteration of relative affinities toward myocardial and vascular beta adrenoceptors induced by side-chain substitution of aryloxypropanolamines” (J Med Chem, 1978).

Assays:
[1] = system: Felis catus; assay: In vivo inhibition of beta-1 adrenoceptor in vagotomized cat assessed as inhibition of isoproterenol-induced tachycardia; format: functional, organism-based; details: read-out: pA2 (converted)
[2] = 1-Octanol-phosphate buffer apparent partition coefficient, log P of the compound at pH 7.4; format: physicochemical
[3] = system: Felis catus; assay: (§1) In vivo inhibition of beta-2 adrenoceptor in chloralose-anesthetized vagotomized cat assessed as inhibition of isoproterenol-induced fall in diastolic pressure; format: functional, organism-based; details: read-out: pA2 (converted)
[4] = system: Felis catus; assay: as §1, with “Potency ratio for in vivo inhibition of beta-1 adrenoceptor in vagotomized cat assessed as inhibition of isoproterenol-induced tachycardia to in” for “In”; format: functional
[5] = system: Felis catus; assay: Potency ratio for in vivo inhibition of beta-2 adrenoceptor in chloralose-anesthetized vagotomized cat assessed as inhibition of isoproterenol-induced fall in diastolic pressure to in vivo inhibition of beta-1 adrenoceptor in vagotomized cat assessed as inhibition of isoproterenol-induced tachycardia; format: functional
[6] = organism: Cavia porcellus; assay: Selectivity for guinea pig right atria beta-1 adrenoceptor over guinea pig trachea beta-2 adrenoceptor

Compound: COc1ccc(CCNCC(O)COc2ccccc2)cc1OC.Cl (racemic)
- Kb [1]: 63.1 nM
- logD [2]: 1.7
- Kb [3]: 692 nM
- Ratio [4]: 10

Compound: CC(C)N[C@H](C)[C@@H](O)COc1ccccc1.Cl (racemic)
- Kb [1]: 501 nM
- logD [2]: -0.244
- Kb [3]: 151 nM
- Ratio [4]: 0.3
- Ratio [5]: 3

Compound: COc1ccc(CCN[C@H](C)[C@@H](O)COc2ccccc2)cc1OC.Cl (racemic)
- Kb [1]: 219 nM
- logD [2]: 1.66
- Kb [3]: > 10000 nM
- Ratio [4]: >40

Compound: CC(C)N[C@@H](C)[C@@H](O)COc1ccccc1.O=C(O)C(=O)O (racemic)
- Kb [1]: 2190 nM
- logD [2]: -0.244
- Kb [3]: 631 nM
- Ratio [4]: 0.3
- Ratio [5]: 3

Compound: CC(C)N[C@H](c1ccccc1)[C@@H](O)COc1ccccc1 (racemic)
- Kb [1]: > 10000 nM
- logD [2]: 2.1
- Kb [3]: > 10000 nM

Compound: Cc1ccc([C@@H](O)[C@H](C)NC(C)C)cc1 (racemic)
- Kb [1]: > 10000 nM
- logD [2]: 0.149
- Kb [3]: 3390 nM
- Ratio [4]: <0.3

Compound: Cc1ccc(OCC(O)CNC(C)C)cc1 (racemic)
- Kb [1]: 234 nM
- logD [2]: 0.423
- Kb [3]: 234 nM
- Ratio [4]: 1

Compound: CC(C)NCC(O)COc1ccccc1 (racemic)
- Kb [1]: 44.7 nM
- logD [2]: -0.137
- Kb [3]: 204 nM
- Ratio [4]: 5
- Selectivity ratio [6]: 25

Compound: CC(=O)Nc1ccc(OCC(O)CNC(C)C)cc1 (racemic) [PRACTOLOL]
- Kb [1]: 229 nM
- logD [2]: -1.05
- Kb [3]: 5010 nM
- Ratio [4]: 22
